Measurements published in publication PMC7555427, “Discovery of Icotinib-1,2,3-Triazole Derivatives as IDO1 Inhibitors” (Frontiers in Pharmacology, 2020).

How the values were obtained:
IDO1 [1] = system: IDO1; set-up: method as in Nelp et al., 2018; conditions: previously reported; ref Nelp et al., 2018; cited from earlier work
IDO1 [2] = molecular target: T1, IDO1 (Homo sapiens, UniProt P14902); assay: Hela cell-based IDO1 functional assay (kynurenine readout, IFN-γ induced); conditions: Hela cells, 100 ng/ml human IFN-γ, 18 h; Table 1 and text
T1 construct: host or cells: HeLa cells, IDO1 induced with 100 ng/ml human IFN-γ
Method: To perform the Hela cell based IDO1 assay, Hela cells were seeded at 50,000 cells per well into 96-well microplate in 100 μl of DMEM 10% fetal bovine serum 1% Penicillin-Streptomycin. Cells were incubated at 37°C and 5% CO2 overnight.
The next day 100 μl per well of diluted inhibitor in growth medium was added at a final concentration of 100 ng/ml human IFN-γ. Cells were incubated at 37°C in a CO2 incubator for 18 h. The next day 140 μl of medium was moved into a new 96-well plate and 20 μl of 3.05 N trichloroacetic acid (TCA) was added. The plate was incubated at 50°C for 30 min to hydrolyze N-formylkynurenine. The plate was then centrifuged at 2,500 rpm for 10 min to remove sediments. 100 μl of supernatant per well was transferred to another 96-well plate and mixed with 100 μl of 2% (w/v) 4-(Dimethylamino)benzaldehyde in acetic acid. The plate was incubated at room temperature for 10 min, the yellow color derived from kynurenine was recorded by measuring absorbance at 480 nm using a microplate reader (PerkinElmer, USA).
To investigate the IDO1 inhibition activities of the synthesized derivatives, all the new compounds and icotinib were screened via Hela cell-based functional assay using methods described in the literature ([Yue et al., 2009]; [Malachowski et al., 2016]; [Qian et al., 2016]).

[3] = system: Human renal epithelial cell (293T); assay: Cytotoxicity assay, Cell Counting Kit-8 (CCK8), 72 h; type: cell-based; conditions: HEK-293T, 293T cells, CCK-8, 72 h
Method: Cytotoxity of the chosen compounds was evaluated by the Cell Counting Kit-8 (CCK8, DOJINDO, Japan) assay. The cells were seeded at a density of 2,000 cells per well into 96-well microplate in 100 μl of growth medium. Cells were incubated at 37°C and 5% CO2 overnight. The next day, 100 μl per well of diluted inhibitor in growth medium was added with the final concentration from 0.1nM to 100 μM. The cells were treated with DMSO as control. A series of dilutions were made in 0.1% DMSO in assay medium so that the final concentration of DMSO was 0.1% in all the treatments. Cells were incubated at 37°C and 5% CO2 for 72 h. Then, 10 μl of CCK8 was added to each well. The plates were incubated at 37°C for 2 h, and the plates were recorded by measuring the absorbance at 450 nm with the reference wavelength of 630 nm using an EnVisionMultilabel Reader (PerkinElmer). The IC50 values were calculated and determined by the concentration causing a half-maximal percent activity. All assays were conducted with three parallel samples and three repetitions.
Next, several compounds with submicromolar level of IDO1 inhibitory activities were chosen for further study. Human renal epithelial cell (293T) was chosen for CCK-8 assay to evaluation the bioactivity of these compounds.

T1 sequence (P14902 whole entry): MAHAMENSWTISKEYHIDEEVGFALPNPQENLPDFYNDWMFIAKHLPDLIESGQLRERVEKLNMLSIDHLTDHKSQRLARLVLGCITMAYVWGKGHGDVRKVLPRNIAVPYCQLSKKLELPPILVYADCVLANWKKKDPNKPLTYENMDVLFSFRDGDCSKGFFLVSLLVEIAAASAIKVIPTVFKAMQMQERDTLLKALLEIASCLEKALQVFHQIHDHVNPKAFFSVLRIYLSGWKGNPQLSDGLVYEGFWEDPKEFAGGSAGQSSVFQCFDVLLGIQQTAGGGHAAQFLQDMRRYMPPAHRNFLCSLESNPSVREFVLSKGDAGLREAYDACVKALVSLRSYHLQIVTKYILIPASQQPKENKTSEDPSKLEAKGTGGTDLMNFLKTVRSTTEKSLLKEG

Row | SMILES | IC50 (IDO1 [1]) | IC50 (IDO1 [2]) | IC50 [3]
2 | Fc1cccc(-n2cc(-c3cccc(Nc4ncnc5cc6c(cc45)OCCOCCOCCO6)c3)nn2)c1 [a1, {3-[1-(3-Fluoro-phenyl)-1H-[1,2,3]triazol-4-yl]-phenyl}-(7,8,10,11,13,14-hexahydro-6,9,12,15-tetraoxa-1,3-diaza-cyclododeca[b]naphthalen-4-yl)-amine] | – | 4.25 ± 0.08 µM | –
3 | Clc1ccc(-n2cc(-c3cccc(Nc4ncnc5cc6c(cc45)OCCOCCOCCO6)c3)nn2)cc1 [a2, {3-[1-(4-Chloro-phenyl)-1H-[1,2,3]triazol-4-yl]-phenyl}-(7,8,10,11,13,14-hexahydro-6,9,12,15-tetraoxa-1,3-diaza-cyclododeca[b]naphthalen-4-yl)-amine] | – | 2.9 ± 0.37 µM | –
4 | Fc1ccc(-n2cc(-c3cccc(Nc4ncnc5cc6c(cc45)OCCOCCOCCO6)c3)nn2)cc1 [a3, {3-[1-(4-Fluoro-phenyl)-1H-[1,2,3]triazol-4-yl]-phenyl}-(7,8,10,11,13,14-hexahydro-6,9,12,15-tetraoxa-1,3-diaza-cyclododeca[b]naphthalen-4-yl)-amine] | – | 18.2 ± 1.47 µM | –
5 | COc1ccccc1-n1cc(-c2cccc(Nc3ncnc4cc5c(cc34)OCCOCCOCCO5)c2)nn1 [a4, (7,8,10,11,13,14-Hexahydro-6,9,12,15-tetraoxa-1,3-diaza-cyclododeca[b]naphthalen-4-yl)-{3-[1-(2-methoxy-phenyl)-1H-[1,2,3]triazol-4-yl]-phenyl}-amine] | – | 1.32 ± 0.17 µM | –
6 | Clc1ccccc1-n1cc(-c2cccc(Nc3ncnc4cc5c(cc34)OCCOCCOCCO5)c2)nn1 [a5, {3-[1-(2-Chloro-phenyl)-1H-[1,2,3]triazol-4-yl]-phenyl}-(7,8,10,11,13,14-hexahydro-6,9,12,15-tetraoxa-1,3-diaza-cyclododeca[b]naphthalen-4-yl)-amine] | – | 4.88 ± 0.42 µM | –
7 | c1ccc(-n2cc(-c3cccc(Nc4ncnc5cc6c(cc45)OCCOCCOCCO6)c3)nn2)cc1 [a6, (7,8,10,11,13,14-Hexahydro-6,9,12,15-tetraoxa-1,3-diaza-cyclododeca[b]naphthalen-4-yl)-[3-(1-phenyl-1H-[1,2,3]triazol-4-yl)-phenyl]-amine] | – | 0.77 ± 0.13 µM | 42.8 ± 11.8 µM
8 | Clc1cccc(-n2cc(-c3cccc(Nc4ncnc5cc6c(cc45)OCCOCCOCCO6)c3)nn2)c1 [a7, {3-[1-(3-Chloro-phenyl)-1H-[1,2,3]triazol-4-yl]-phenyl}-(7,8,10,11,13,14-hexahydro-6,9,12,15-tetraoxa-1,3-diaza-cyclododeca[b]naphthalen-4-yl)-amine] | – | 2.82 ± 0.26 µM | 3.1 ± 0.2 µM
9 | Ic1ccccc1-n1cc(-c2cccc(Nc3ncnc4cc5c(cc34)OCCOCCOCCO5)c2)nn1 [a8, (7,8,10,11,13,14-Hexahydro-6,9,12,15-tetraoxa-1,3-diaza-cyclododeca[b]naphthalen-4-yl)-{3-[1-(2-iodo-phenyl)-1H-[1,2,3]triazol-4-yl]-phenyl}-amine] | – | 2.5 ± 0.43 µM | –
10 | COc1cccc(-n2cc(-c3cccc(Nc4ncnc5cc6c(cc45)OCCOCCOCCO6)c3)nn2)c1 [a9, (7,8,10,11,13,14-Hexahydro-6,9,12,15-tetraoxa-1,3-diaza-cyclododeca[b]naphthalen-4-yl)-{3-[1-(3-methoxy-phenyl)-1H-[1,2,3]triazol-4-yl]-phenyl}-amine] | – | 1.41 ± 0.08 µM | –
11 | Brc1ccc(-n2cc(-c3cccc(Nc4ncnc5cc6c(cc45)OCCOCCOCCO6)c3)nn2)cc1 [a10, {3-[1-(4-Bromo-phenyl)-1H-[1,2,3]triazol-4-yl]-phenyl}-(7,8,10,11,13,14-hexahydro-6,9,12,15-tetraoxa-1,3-diaza-cyclododeca[b]naphthalen-4-yl)-amine] | – | 2.79 ± 0.46 µM | –
12 | Brc1ccccc1-n1cc(-c2cccc(Nc3ncnc4cc5c(cc34)OCCOCCOCCO5)c2)nn1 [a11, {3-[1-(2-Bromo-phenyl)-1H-[1,2,3]triazol-4-yl]-phenyl}-(7,8,10,11,13,14-hexahydro-6,9,12,15-tetraoxa-1,3-diaza-cyclododeca[b]naphthalen-4-yl)-amine] | – | 1 ± 0.49 µM | –
13 | FC(F)(F)c1ccc(-n2cc(-c3cccc(Nc4ncnc5cc6c(cc45)OCCOCCOCCO6)c3)nn2)cc1 [a12, (7,8,10,11,13,14-Hexahydro-6,9,12,15-tetraoxa-1,3-diaza-cyclododeca[b]naphthalen-4-yl)-{3-[1-(4-trifluoromethyl-phenyl)-1H-[1,2,3]triazol-4-yl]-phenyl}-amine] | – | > 100 µM | –
14 | Fc1ccccc1Cn1cc(-c2cccc(Nc3ncnc4cc5c(cc34)OCCOCCOCCO5)c2)nn1 [a13, {3-[1-(2-Fluoro-benzyl)-1H-[1,2,3]triazol-4-yl]-phenyl}-(7,8,10,11,13,14-hexahydro-6,9,12,15-tetraoxa-1,3-diaza-cyclododeca[b]naphthalen-4-yl)-amine] | – | 4.62 ± 0.19 µM | –
15 | Cc1ccccc1Cn1cc(-c2cccc(Nc3ncnc4cc5c(cc34)OCCOCCOCCO5)c2)nn1 [a14, (7,8,10,11,13,14-Hexahydro-6,9,12,15-tetraoxa-1,3-diaza-cyclododeca[b]naphthalen-4-yl)-{3-[1-(2-methyl-benzyl)-1H-[1,2,3]triazol-4-yl]-phenyl}-amine] | – | 0.79 ± 0.21 µM | 3.35 ± 0.89 µM
16 | Cc1ccc(Cn2cc(-c3cccc(Nc4ncnc5cc6c(cc45)OCCOCCOCCO6)c3)nn2)cc1 [a15, (7,8,10,11,13,14-Hexahydro-6,9,12,15-tetraoxa-1,3-diaza-cyclododeca[b]naphthalen-4-yl)-{3-[1-(4-methyl-benzyl)-1H-[1,2,3]triazol-4-yl]-phenyl}-amine] | – | 0.59 ± 0.05 µM | 0.16 ± 0.05 µM
17 | Ic1ccccc1Cn1cc(-c2cccc(Nc3ncnc4cc5c(cc34)OCCOCCOCCO5)c2)nn1 [a16, (7,8,10,11,13,14-Hexahydro-6,9,12,15-tetraoxa-1,3-diaza-cyclododeca[b]naphthalen-4-yl)-{3-[1-(2-iodo-benzyl)-1H-[1,2,3]triazol-4-yl]-phenyl}-amine] | – | 1.51 ± 0.11 µM | –
18 | Brc1cccc(Cn2cc(-c3cccc(Nc4ncnc5cc6c(cc45)OCCOCCOCCO6)c3)nn2)c1 [a17, {3-[1-(3-Bromo-benzyl)-1H-[1,2,3]triazol-4-yl]-phenyl}-(7,8,10,11,13,14-hexahydro-6,9,12,15-tetraoxa-1,3-diaza-cyclododeca[b]naphthalen-4-yl)-amine] | – | 0.37 ± 0.02 µM | 3.1 ± 0.2 µM
19 | c1ccc(Cn2cc(-c3cccc(Nc4ncnc5cc6c(cc45)OCCOCCOCCO6)c3)nn2)cc1 [a18, [3-(1-Benzyl-1H-[1,2,3]triazol-4-yl)-phenyl]-(7,8,10,11,13,14-hexahydro-6,9,12,15-tetraoxa-1,3-diaza-cyclododeca[b]naphthalen-4-yl)-amine] | – | 0.56 ± 0.16 µM | 3.08 ± 0.59 µM
20 | Brc1ccccc1Cn1cc(-c2cccc(Nc3ncnc4cc5c(cc34)OCCOCCOCCO5)c2)nn1 [a19, {3-[1-(2-Bromo-benzyl)-1H-[1,2,3]triazol-4-yl]-phenyl}-(7,8,10,11,13,14-hexahydro-6,9,12,15-tetraoxa-1,3-diaza-cyclododeca[b]naphthalen-4-yl)-amine] | – | 1.5 ± 0.45 µM | –
21 | COc1cccc(Cn2cc(-c3cccc(Nc4ncnc5cc6c(cc45)OCCOCCOCCO6)c3)nn2)c1 [a20, (7,8,10,11,13,14-Hexahydro-6,9,12,15-tetraoxa-1,3-diaza-cyclododeca[b]naphthalen-4-yl)-{3-[1-(3-methoxy-benzyl)-1H-[1,2,3]triazol-4-yl]-phenyl}-amine] | – | 0.76 ± 0.07 µM | 3.3 ± 1.3 µM
22 | Brc1cc(Br)cc(Cn2cc(-c3cccc(Nc4ncnc5cc6c(cc45)OCCOCCOCCO6)c3)nn2)c1 [a21, {3-[1-(3,5-Dibromo-benzyl)-1H-[1,2,3]triazol-4-yl]-phenyl}-(7,8,10,11,13,14-hexahydro-6,9,12,15-tetraoxa-1,3-diaza-cyclododeca[b]naphthalen-4-yl)-amine] | – | 0.68 ± 0.44 µM | 0.74 ± 0.15 µM
23 | Fc1ccc(CCn2cc(-c3cccc(Nc4ncnc5cc6c(cc45)OCCOCCOCCO6)c3)nn2)cc1 [a22, (3-{1-[2-(4-Fluoro-phenyl)-ethyl]-1H-[1,2,3]triazol-4-yl}-phenyl)-(7,8,10,11,13,14-hexahydro-6,9,12,15-tetraoxa-1,3-diaza-cyclododeca[b]naphthalen-4-yl)-amine] | – | 0.81 ± 0.35 µM | 2.6 ± 0.17 µM
24 | C#Cc1cccc(Nc2ncnc3cc4c(cc23)OCCOCCOCCO4)c1 [icotinib] | – | 2.57 ± 0.44 µM | –
